According to the supplement of paper PMC10307832:

Key:
Test in all cases: relative viability (nuclei count vs DMSO), 5 days (fraction); higher = more cells survive
Vemurafenib + Bortezomib = compound: CCCS(=O)(=O)Nc1ccc(F)c(C(=O)c2c[nH]c3ncc(-c4ccc(Cl)cc4)cc23)c1F [Vemurafenib] + CC(C)C[C@H](NC(=O)[C@H](Cc1ccccc1)NC(=O)c1cnccn1)B(O)O [Bortezomib] (partner 0.002 µM)
How it was run: (§1)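 Each reported value is a median over duplicate plates. It expresses relative viability: treated-well nuclei count divided by vehicle-well nuclei count. Lung cancer cell lines in 1536-well plates were dosed by pin tool a day after seeding, alone with one drug or with a fixed anchor-drug dose plus five library-drug doses (not always all listed) in √10 steps, and nuclei were counted after 5 days.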

Vemurafenib + AZD7762 = compound: CCCS(=O)(=O)Nc1ccc(F)c(C(=O)c2c[nH]c3ncc(-c4ccc(Cl)cc4)cc23)c1F [Vemurafenib] + NC(=O)Nc1cc(-c2cccc(F)c2)sc1C(=O)N[C@H]1CCCNC1 [AZD7762] (partner 0.2 µM)
How it was run: as §1

Vemurafenib + Decitabine = compound: CCCS(=O)(=O)Nc1ccc(F)c(C(=O)c2c[nH]c3ncc(-c4ccc(Cl)cc4)cc23)c1F [Vemurafenib] + Nc1ncn([C@H]2C[C@H](O)[C@@H](CO)O2)c(=O)n1 [Decitabine] (partner 2 µM)
How it was run: as §1

OSI-027 + Vorinostat = compound: COc1cccc2cc(-c3nc([C@H]4CC[C@H](C(=O)O)CC4)n4ncnc(N)c34)[nH]c12 [OSI-027] + O=C(CCCCCCC(=O)Nc1ccccc1)NO [Vorinostat] (partner 1 µM)
How it was run: as §1

| Cell Line | relative viability (Vemurafenib + Bortezomib; first compound 0.03162 µM) | relative viability (Vemurafenib + Bortezomib; first compound 0.1 µM) | relative viability (Vemurafenib + Bortezomib; first compound 1 µM) | relative viability (Vemurafenib + AZD7762; first compound 0.03162 µM) | relative viability (Vemurafenib + AZD7762; first compound 0.1 µM) | relative viability (Vemurafenib + AZD7762; first compound 0.3162 µM) | relative viability (Vemurafenib + AZD7762; first compound 1 µM) | relative viability (Vemurafenib + Decitabine; first compound 0.03162 µM) | relative viability (Vemurafenib + Decitabine; first compound 0.1 µM) | relative viability (Vemurafenib + Decitabine; first compound 0.3162 µM) | relative viability (Vemurafenib + Decitabine; first compound 1 µM) | relative viability (OSI-027 + Vorinostat; first compound 0.01 µM) | relative viability (OSI-027 + Vorinostat; first compound 0.03162 µM) | relative viability (OSI-027 + Vorinostat; first compound 0.1 µM) | relative viability (OSI-027 + Vorinostat; first compound 0.3162 µM) | relative viability (OSI-027 + Vorinostat; first compound 1 µM) | relative viability (Vemurafenib + Bortezomib; first compound 0.3162 µM) |
| --- | --- | --- | --- | --- | --- | --- | --- | --- | --- | --- | --- | --- | --- | --- | --- | --- | --- |
| LOU-NH91 | 0.478 | 0.467 | 0.534 | 0.735 | 0.682 | 0.594 | 0.816 | 0.74 | 0.638 | 0.703 | 0.863 | 0.858 | 0.913 | 0.69 | 0.712 | 0.479 | – |
| LU99A | 1.02 | 1.07 | 1.04 | 0.369 | 0.353 | – | 0.385 | 0.843 | 0.907 | – | 0.719 | 0.491 | 0.667 | 0.396 | 0.304 | 0.232 | 1.05 |
| LXF-289 | 1.01 | 0.953 | 1.1 | 1.04 | 1.12 | 1.04 | 1.25 | 0.329 | 0.303 | 0.377 | 0.35 | 0.767 | 0.836 | 0.827 | 0.902 | 0.787 | 0.966 |
| NCI-H23 | 1 | 1.01 | 1.29 | 0.203 | 0.178 | 0.154 | 0.21 | 0.287 | 0.272 | 0.353 | 0.322 | 0.58 | 0.232 | 0.406 | 0.398 | 0.303 | 1.15 |
| NCI-H322M | 1.2 | – | 1.2 | 0.559 | – | 0.543 | 0.51 | 0.721 | – | 0.86 | 0.707 | 0.869 | 0.863 | 0.748 | 0.663 | 0.624 | 1.43 |
| NCI-H441 | 0.336 | 0.482 | 0.412 | 1.09 | 1.1 | 1.16 | 1.03 | 0.252 | 0.262 | 0.28 | 0.231 | 0.837 | 0.77 | 0.757 | 0.741 | 0.431 | – |
| NCI-H460 | 0.982 | 1.1 | 1.04 | 0.579 | 0.604 | – | 0.619 | 0.435 | 0.511 | 0.485 | 0.501 | 1.06 | 0.594 | 0.685 | 0.65 | 0.219 | 0.932 |
| NCI-H596 | 1.05 | 0.896 | 1.05 | 1.11 | 1.05 | 0.801 | 1.02 | 0.974 | 0.959 | 0.922 | 0.864 | 0.459 | 0.685 | 0.497 | 0.523 | 0.416 | 0.802 |
| NCI-H647 | 0.881 | 0.96 | 0.874 | 0.433 | 0.541 | 0.26 | 0.432 | 0.478 | 0.396 | 0.38 | 0.444 | 0.656 | 0.468 | 0.385 | 0.363 | 0.36 | 0.739 |
| NCI-H650 | 0.668 | 0.899 | 0.423 | 0.854 | 1.03 | 0.419 | 0.906 | 0.311 | 0.334 | 0.308 | 0.33 | 0.495 | 0.479 | 0.325 | 0.303 | 0.232 | 0.443 |
